Test results taken from patent publication US20250277012A1 (Protagonist Therapeutics, Inc., priority 2021, published 2025).
Read-outs that look alike come from different tables or passages of the source. Starred links: 1 amine or outer side, 2 acyl side, 3 side chain; linkers in the order of their positions; H or OH if unused. Positions of bridges follow the written chain, without caps; N, C: chain ends. Non-standard residues stand in square brackets, D forms with d. Residues, ends and D or L forms follow the SMILES beside them. Groups on a side chain read outwards from the residue. *: point of attachment. X1 = C[N+](C)(CCNC(=O)CCCCCCCCCCCCCCCCC(=O)O)CC(=O)*; C18 diacid = O=C(O)CCCCCCCCCCCCCCCCC(=O)*; Dip = N[C@H](C(=O)O)C(c1ccccc1)c1ccccc1; γGlu = O=C(O)[C@H](CCC(=O)[*:2])N[*:1]; Palmitoyl = CCCCCCCCCCCCCCCC(=O)*; NMeI = CC[C@H](C)[C@H](NC)C(=O)O; β3hF = N[C@H](CC(=O)O)Cc1ccccc1; NMeK = CN[C@@H](CCCCN)C(=O)O; Isovaleryl = CC(C)CC(=O)*; hCys = N[C@@H](CCS)C(=O)O; Dap = NC[C@H](N)C(=O)O; AEEA = NCCOCCOCC(=O)O; Ahx = NCCCCCC(=O)O

How the values were obtained:
[1] = target: T1, ferroportin (Homo sapiens, UniProt Q9NP59); test: T47D cell-based ferroportin internalization assay in presence of mouse serum albumin (MSA); parameters: a human breast carcinoma adherent cell line which endogenously expresses ferroportin; host or cells: T47D
T1 sequence (Q9NP59 1-571): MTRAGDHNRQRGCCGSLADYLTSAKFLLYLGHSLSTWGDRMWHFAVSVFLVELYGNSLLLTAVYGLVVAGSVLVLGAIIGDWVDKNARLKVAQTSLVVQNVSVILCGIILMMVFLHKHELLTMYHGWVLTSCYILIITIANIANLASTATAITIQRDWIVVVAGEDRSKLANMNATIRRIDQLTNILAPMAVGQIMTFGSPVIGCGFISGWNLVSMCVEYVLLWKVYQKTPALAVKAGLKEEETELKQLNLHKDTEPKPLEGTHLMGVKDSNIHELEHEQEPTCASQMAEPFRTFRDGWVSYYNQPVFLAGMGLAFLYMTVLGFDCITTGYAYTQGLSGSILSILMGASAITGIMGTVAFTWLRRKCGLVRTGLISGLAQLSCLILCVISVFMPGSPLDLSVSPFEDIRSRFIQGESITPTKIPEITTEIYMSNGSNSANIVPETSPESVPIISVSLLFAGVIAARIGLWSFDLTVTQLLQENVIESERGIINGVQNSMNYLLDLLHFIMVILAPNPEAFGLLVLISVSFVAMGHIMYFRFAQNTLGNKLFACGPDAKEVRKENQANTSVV
In short: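 Peptide potency for inducing ferroportin internalization was measured in T47D cells in the presence of serum albumin. Cells grown in RPMI with fetal bovine serum were seeded in 96-well plates at 80-100 k cells per well in 100 ul and rested overnight. Dilution series of test peptides were preincubated 30 min at room temperature, then added to the cells after the medium was aspirated.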

[2] = target: T1, ferroportin; test: FPN activity assay: ferroportin-GFP internalization/degradation in HEK293 cells; type: cell-based; parameters: expressed in transfected cells; details: read-out: FPN IC50
Experimental: Following internalization, the ferroporin protein is degraded.
A retro inverse peptide is a peptide with a reversed sequence in all D amino acids. An example is that Hy-Glu-Thr-His-NH2 becomes Hy-DHis-DThr-DGlu-NH2. The EC50 of these reference compounds for ferroportin internalization/degradation was determined according to the FPN activity assay described above. These peptides served as control standards.

[3] = T47D cells, 0.5% mouse serum albumin, 1 hr incubation
[4] = ferroportin-GFP HEK293 cells, at least 18 hours
[5] = T47D internalization assay in presence of mouse serum albumin (MSA), Table 6E
[6] = ferroportin-GFP internalization/degradation, HEK293 cells, Table 6E
[7] = Table 6E, T47D internalization assay with MSA
[8] = Table 6E, ferroportin-GFP internalization/degradation, at least 18 hours incubation

IC50 [1, 3] [nM]	DC50 [2, 4] [nM]	IC50 [1, 5] [nM]	DC50 [2, 6] [nM]	SMILES	other results
10 to 100	10 to 100	–	–	CC(C)CC(=O)N[C@@H](CCC(=O)O)C(=O)N[C@H](C(=O)N[C@@H](Cc1c[nH]cn1)C(=O)N[C@H](C(=O)N1CCC[C@H]1C(=O)N[C@H]1CSSC[C@@H](C(=O)N[C@@H](CCCCNC(=O)COCCOCCNC(=O)COCCOCCNC(=O)CCCCCNC(=O)CCCCCCCCCCCCCCCCC(=O)O)C(=O)N[C@H](CC(=O)N[C@H](CCCCN)C(N)=O)Cc2ccccc2)NC1=O)C(c1ccccc1)c1ccccc1)[C@@H](C)O [Compd 22] (Isovaleryl-ETH[Dip]PCCK([AEEA-AEEA-Ahx-C18 diacid])[β3hF][dK]-NH2; disulfide 6-7)	–
–	–	1 to 10	10 to 100	CCCCCCCCCCCCCCCC(=O)NCCCCCC(=O)NCCCC[C@@H](C(=O)N[C@H](CC(=O)N[C@H](CCCCN)C(N)=O)Cc1ccccc1)N(C)C(=O)[C@@H]1CSSC[C@H](NC(=O)[C@@H]2CCCN2C(=O)[C@@H](NC(=O)[C@H](Cc2cnc[nH]2)NC(=O)[C@@H](NC(=O)[C@H](CCC(=O)O)NC(=O)CC(C)C)[C@@H](C)O)C(c2ccccc2)c2ccccc2)C(=O)N1 [compound 308] (Isovaleryl-ETH[Dip]PCC[NMeK]([Ahx-Palmitoyl])[β3hF][dK]-NH2; disulfide 6-7)	–
–	–	10 to 100	10 to 100	CC[C@H](C)[C@@H](C(N)=O)N(C)C(=O)[C@@H](CCCCN)NC(=O)C[C@H](Cc1ccccc1)NC(=O)[C@H](CCCCNC(=O)COCCOCCNC(=O)COCCOCCNC(=O)[C@H](CN)NC(=O)CCCCCCCCCCCCCCCCC(=O)O)N(C)C(=O)[C@@H]1CSSC[C@H](NC(=O)[C@@H]2CCCN2C(=O)[C@@H](NC(=O)[C@H](Cc2c[nH]cn2)NC(=O)[C@@H](NC(=O)[C@H](CCC(=O)O)NC(=O)CC(C)C)[C@@H](C)O)C(c2ccccc2)c2ccccc2)C(=O)N1 [compound 262] (Isovaleryl-ETH[Dip]PCC[NMeK]([AEEA-AEEA-Dap-C18 diacid])[β3hF][dK][NMeI]-NH2; disulfide 6-7)	–
10 to 100	10 to 100	–	–	CC(C)CC(=O)N[C@@H](CCC(=O)O)C(=O)N[C@H](C(=O)N[C@@H](Cc1c[nH]cn1)C(=O)N[C@H](C(=O)N1CCC[C@H]1C(=O)N[C@H]1CSSC[C@@H](C(=O)N[C@@H](CCCCNC(=O)COCCOCCNC(=O)COCCOCCNC(=O)CC[C@H](NC(=O)CCCCCCCCCCCCCCCCC(=O)O)C(=O)O)C(=O)N[C@H](CC(=O)N[C@H](CCCCN)C(N)=O)Cc2ccccc2)NC1=O)C(c1ccccc1)c1ccccc1)[C@@H](C)O [Compd ID 31, Isovaleric Acid-E-T-H-[Dpa]-P-[Cys]-[Cys]-[Lys(1PEG2_1PEG2_IsoGlu_C18_Diacid)]-[bhPhe]-[(D)Lys]-NH2] (Isovaleryl-ETH[Dip]PCCK([AEEA-AEEA-γGlu-C18 diacid])[β3hF][dK]-NH2; disulfide 6-7)	–
–	–	10 to 100	10 to 100	CC(C)CC(=O)N[C@@H](CCC(=O)O)C(=O)N[C@H](C(=O)N[C@@H](Cc1c[nH]cn1)C(=O)N[C@H](C(=O)N1CCC[C@H]1C(=O)N[C@H]1CCSSCC[C@@H](C(=O)N(C)[C@@H](CCCCNC(=O)COCCOCCNC(=O)COCCOCCNC(=O)[C@H](CN)NC(=O)CCCCCCCCCCCCCCCCC(=O)O)C(=O)N[C@H](CC(=O)N[C@H](CCCCN)C(N)=O)Cc2ccccc2)NC1=O)C(c1ccccc1)c1ccccc1)[C@@H](C)O [compound 269] (Isovaleryl-ETH[Dip]P[hCys][hCys][NMeK]([AEEA-AEEA-Dap-C18 diacid])[β3hF][dK]-NH2; disulfide 6-7)	–
–	–	–	–	COC(=O)CC[C@H](NC(=O)CC(C)C)C(=O)N[C@H](C(=O)N[C@@H](Cc1c[nH]cn1)C(=O)N[C@H](C(=O)N1CCC[C@H]1C(=O)N[C@H]1CSSC[C@@H](C(=O)N(C)[C@@H](CCCCNC(=O)CCCCCNC(=O)C[N+](C)(C)CCNC(=O)CCCCCCCCCCCCCCCCC(=O)O)C(=O)N[C@H](C(=O)N[C@H](CCCCN)C(N)=O)C(c2ccccc2)c2ccccc2)NC1=O)C(c1ccccc1)c1ccccc1)[C@@H](C)OC [compound 147] (Isovaleryl-E(OMe)T(Me)H[Dip]PCC[NMeK]([Ahx-X1])[Dip][dK]-NH2; disulfide 6-7)	IC50 [1, 7]: 100 to 500 nM; DC50 [2, 8]: 10 to 100 nM
–	–	10 to 100	10 to 100	COC(=O)CC[C@H](NC(=O)CC(C)C)C(=O)N[C@H](C(=O)N[C@@H](Cc1c[nH]cn1)C(=O)N[C@H](C(=O)N1CCC[C@H]1C(=O)N[C@H]1CSSC[C@@H](C(=O)N(C)[C@@H](CCCCNC(=O)COCCOCCNC(=O)COCCOCCNC(=O)[C@H](CN)NC(=O)CCCCCCCCCCCCCCCCC(=O)O)C(=O)N[C@H](CC(=O)N[C@H](CCCCN)C(N)=O)Cc2ccccc2)NC1=O)C(c1ccccc1)c1ccccc1)[C@@H](C)O [compound 305] (Isovaleryl-E(OMe)TH[Dip]PCC[NMeK]([AEEA-AEEA-Dap-C18 diacid])[β3hF][dK]-NH2; disulfide 6-7)	–
10 to 100	10 to 100	–	–	CC(C)CC(=O)N[C@@H](CCC(=O)O)C(=O)N[C@H](C(=O)N[C@@H](Cc1c[nH]cn1)C(=O)N[C@H](C(=O)N1CCC[C@H]1C(=O)N[C@H]1CSSC[C@@H](C(=O)N[C@@H](CCCCNC(=O)COCCOCCNC(=O)COCCOCCNC(=O)[C@H](CN)NC(=O)CCCCCCCCCCCCCCCCC(=O)O)C(=O)N[C@H](CC(=O)N[C@H](CCCCN)C(N)=O)Cc2ccccc2)NC1=O)C(c1ccccc1)c1ccccc1)[C@@H](C)O [Compd 41] (Isovaleryl-ETH[Dip]PCCK([AEEA-AEEA-Dap-C18 diacid])[β3hF][dK]-NH2; disulfide 6-7)	–
–	–	–	–	COC(=O)CC[C@H](NC(=O)CC(C)C)C(=O)N[C@H](C(=O)N[C@@H](Cc1c[nH]cn1)C(=O)N[C@H](C(=O)N1CCC[C@H]1C(=O)N[C@H]1CSSC[C@@H](C(=O)N(C)[C@@H](CCCCNC(=O)[C@H](CN)NC(=O)CCCCCCCCCCCCCCCCC(=O)O)C(=O)N[C@H](C(=O)N[C@H](CCCCN)C(N)=O)C(c2ccccc2)c2ccccc2)NC1=O)C(c1ccccc1)c1ccccc1)[C@@H](C)O [compound 206] (Isovaleryl-E(OMe)TH[Dip]PCC[NMeK]([Dap-C18 diacid])[Dip][dK]-NH2; disulfide 6-7)	IC50 [1, 7]: 10 to 100 nM; DC50 [2, 8]: 10 to 100 nM
–	–	–	–	CCCCCCCCCCCCCCCC(=O)NCCCCCC(=O)NCCCC[C@@H](C(=O)N[C@H](C(=O)N[C@H](CCCCN)C(N)=O)C(c1ccccc1)c1ccccc1)N(C)C(=O)[C@@H]1CSSC[C@H](NC(=O)[C@@H]2CCCN2C(=O)[C@@H](NC(=O)[C@H](Cc2cnc[nH]2)NC(=O)[C@@H](NC(=O)[C@H](CCC(=O)O)NC(=O)CC(C)C)[C@@H](C)O)C(c2ccccc2)c2ccccc2)C(=O)N1 [compound 196] (Isovaleryl-ETH[Dip]PCC[NMeK]([Ahx-Palmitoyl])[Dip][dK]-NH2; disulfide 6-7)	IC50 [1, 7]: 1 to 10 nM; DC50 [2, 8]: 1 to 10 nM
10 to 100	10 to 100	–	–	COC(=O)CC[C@H](NC(=O)CC(C)C)C(=O)N[C@H](C(=O)N[C@@H](Cc1c[nH]cn1)C(=O)N[C@H](C(=O)N1CCC[C@H]1C(=O)N[C@H]1CSSC[C@@H](C(=O)N[C@@H](CCCCNC(=O)COCCOCCNC(=O)COCCOCCNC(=O)[C@H](CN)NC(=O)CCCCCCCCCCCCCCCCC(=O)O)C(=O)N[C@H](CC(=O)N[C@H](CCCCN)C(N)=O)Cc2ccccc2)NC1=O)C(c1ccccc1)c1ccccc1)[C@@H](C)O [Compd ID 42, Isovaleric Acid-[Glu_OMe]-T-H-[Dpa]-P-[Cys]-[Cys]-[Lys(1PEG2_1PEG2_Dap_C18_Diacid)]-[bhPhe]-[(D)Lys]-NH2] (Isovaleryl-E(OMe)TH[Dip]PCCK([AEEA-AEEA-Dap-C18 diacid])[β3hF][dK]-NH2; disulfide 6-7)	–
10 to 100	10 to 100	–	–	CC[C@H](C)[C@@H]1NC(=O)[C@@H](NC(=O)[C@@H]2CCCN2C(=O)[C@@H](NC(=O)[C@H](Cc2c[nH]cn2)NC(=O)[C@@H](NC(=O)[C@H](CCC(=O)O)NC(=O)CC(C)C)[C@@H](C)O)C(c2ccccc2)c2ccccc2)CSSC[C@@H](C(=O)N[C@H](CC(=O)N[C@@H](CCCCNC(=O)COCCOCCNC(=O)COCCOCCNC(=O)CC[C@H](NC(=O)CCCCCCCCCCCCCCCCC(=O)O)C(=O)O)C(=O)N[C@H](CCCCN)C(N)=O)Cc2ccccc2)NC1=O [Compd 36] (Isovaleryl-ETH[Dip]PCIC[β3hF]K([AEEA-AEEA-γGlu-C18 diacid])[dK]-NH2; disulfide 6-8)	–
